From patent publication US12630509B2, “Heterocyclic NMDA antagonists” (TAKEDA PHARMACEUTICAL COMPANY LIMITED, priority 2019, dated 2026)

Target: NMDA receptor composed of four subunits including two sets of heterodimers of NR1 and NR2B (GRIN1/GRIN2B) expressed in HEK 293 cells (Homo sapiens, UniProt Q13224)
Experiment: NR2B Ca2+ influx assay
Type: cell-based
Conditions: HEK293, final concentration 10 μM; glutamic acid and glycine induced Ca2+ influx, HEK 293 cells expressing human GRIN1 and GRIN2B; read-out: % inhibited(10 μM)
Description: The HEK 293 cells that express GRIN1 and GRIN2B were purchased from ChanTest (human NMDA (NR1/NR2B) receptor-expressing, stable replicating cell line (HEK 293) catalog no. CT6121).
Intracellular calcium-ion (Ca^2+) influx caused by glycine and glutamic acid respectively binding to NR1 and NR2B was used as an index of NMDA receptor activation.
The HEK 293 cells expressing GRIN1 and GRIN2B were cultured in a cell culture flask in an incubator (37° C., in 5% CO2) using a DMEM/F-12 (Cosmo Bio, 10-092-CM) medium supplemented with 10% FBS (fetal bovine serum, AusGene), 100 units/mL penicillin, 100 μg/mL streptomycin, 500 μg/mL neomycin, 100 μg/mL Zeocin (registered trademark of Invitrogen), and 5 μg/mL blasticidin.
On the day before the assay, the cells were detached from the flask by trypsinization, suspended in a seeding medium (DMEM (Invitrogen, 31053) supplemented with 10% FBS, 100 units/mL penicillin, and 100 μg/mL streptomycin) so as to be 8×10^5 cells/mL, seeded at 25 μL per well in a 384-well plate (Falcon, 356663) so as to be 20,000 cells/well, and cultured overnight using the incubator. On the day of the assay, tetracycline (Wako Pure Chemical, 209-16561) was diluted with the seeding medium at 2 μg/mL, and added at 25 μL/well to the plate into which the cells were seeded, and this was cultured for 2 hours in the incubator. Afterward, the medium was removed and washed with an assay buffer (137 mM NaCl, 4 mM KCl, 1.8 mM CaCl2), 10 mM HEPES (pH 7.2), 10 mM glucose, 0.1% BSA) at 50 μL/well. Next, a loading buffer (buffer wherein 2.5 μM Fluo-4 AM, 2 mM amaranth, and 1 mM tartrazine are added to the assay buffer) was added at 25 μL/well, and this was incubated in the incubator for 30 minutes and for 15 minutes at room temperature. Solutions wherein the Example compounds were diluted with the above-mentioned assay buffer so as to be 30 μM (final concentration 10 μM) were added at 25 μL/well, and these were left standing for 15 minutes at room temperature. Using FDSS7000EX/μCELL (Hamamatsu Photonics), an assay buffer including 30 μM glutamic acid and 30 μM glycine was added at 25 μL/well, and a fluorescence signal of an Excitation wavelength of 480 nm and an Emission wavelength of 540 nm was measured every 3 seconds for 5 minutes. The inhibitory activity was calculated as a relative activity value (inhibitory rate) wherein relative to an integrated value of florescence values of each well, an integrated value of fluorescence values of a well into which an assay buffer without glutamic acid and glycine was defined as 100% inhibition.

NMDA receptor composed of four subunits including two sets of heterodimers of NR1 and NR2B (GRIN1/GRIN2B) expressed in HEK 293 cells, sequence (Q13224 27-1484, other chains not shown): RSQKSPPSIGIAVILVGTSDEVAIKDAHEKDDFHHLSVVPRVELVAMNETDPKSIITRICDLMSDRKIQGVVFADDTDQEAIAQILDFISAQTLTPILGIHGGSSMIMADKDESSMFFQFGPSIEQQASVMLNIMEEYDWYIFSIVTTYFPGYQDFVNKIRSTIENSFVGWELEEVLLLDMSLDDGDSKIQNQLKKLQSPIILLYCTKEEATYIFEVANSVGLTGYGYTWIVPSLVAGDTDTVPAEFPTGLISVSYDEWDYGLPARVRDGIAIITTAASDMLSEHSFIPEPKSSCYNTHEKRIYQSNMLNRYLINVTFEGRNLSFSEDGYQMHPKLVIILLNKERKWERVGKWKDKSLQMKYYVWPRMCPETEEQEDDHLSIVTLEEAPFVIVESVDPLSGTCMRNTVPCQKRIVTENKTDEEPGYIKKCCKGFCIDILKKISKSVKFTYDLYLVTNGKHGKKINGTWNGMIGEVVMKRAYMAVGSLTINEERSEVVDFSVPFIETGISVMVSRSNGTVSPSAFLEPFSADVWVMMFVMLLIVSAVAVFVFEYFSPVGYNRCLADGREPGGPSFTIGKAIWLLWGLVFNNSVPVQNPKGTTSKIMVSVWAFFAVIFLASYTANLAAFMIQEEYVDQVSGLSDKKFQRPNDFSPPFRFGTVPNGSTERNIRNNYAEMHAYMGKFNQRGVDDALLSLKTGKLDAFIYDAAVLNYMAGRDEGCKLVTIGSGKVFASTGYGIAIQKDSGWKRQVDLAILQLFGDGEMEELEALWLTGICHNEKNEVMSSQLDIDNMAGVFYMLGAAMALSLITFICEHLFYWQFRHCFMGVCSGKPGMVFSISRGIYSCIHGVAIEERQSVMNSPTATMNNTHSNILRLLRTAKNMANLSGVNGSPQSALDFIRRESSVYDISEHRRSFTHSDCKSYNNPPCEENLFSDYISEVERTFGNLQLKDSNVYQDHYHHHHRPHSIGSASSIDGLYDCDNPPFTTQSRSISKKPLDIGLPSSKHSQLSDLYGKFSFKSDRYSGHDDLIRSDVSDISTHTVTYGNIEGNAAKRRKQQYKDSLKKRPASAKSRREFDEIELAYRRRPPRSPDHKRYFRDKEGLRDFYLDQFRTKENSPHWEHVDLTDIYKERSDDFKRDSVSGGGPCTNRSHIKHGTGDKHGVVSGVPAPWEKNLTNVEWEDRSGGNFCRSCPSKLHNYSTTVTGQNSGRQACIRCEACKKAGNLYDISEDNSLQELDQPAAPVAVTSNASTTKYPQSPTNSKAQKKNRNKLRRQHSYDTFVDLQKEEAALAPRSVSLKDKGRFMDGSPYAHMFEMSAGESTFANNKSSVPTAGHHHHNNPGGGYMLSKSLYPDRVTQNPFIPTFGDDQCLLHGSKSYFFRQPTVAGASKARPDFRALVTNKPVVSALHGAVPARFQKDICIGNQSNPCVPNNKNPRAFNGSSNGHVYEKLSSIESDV

| Compound | inhibition at 10 µM [%] |
| --- | --- |
| C[C@H]1[C@@H](O)C(F)(F)C(=O)N1Cc1ccc(Oc2c(F)cc(F)cc2F)nc1 [Example 34, (4R,5S)-3,3-difluoro-4-hydroxy-5-methyl-1-{[6-(2,4,6-trifluorophenoxy)pyridin-3-yl]methyl}pyrrolidin-2-one] | 97 |
| C[C@H]1CNC(=O)N1Cc1ccc(Oc2ccc(F)cc2F)nc1 [Example 35, (5S)-1-{[6-(2,4-difluorophenoxy)pyridin-3-yl]methyl}5-methylimidazolidin-2-one] | 96 |
| C[C@H]1[C@@H](O)C(F)(F)C(=O)N1Cc1ccc(Oc2ccc(F)cc2F)nc1 [Example 36, (4R,5S)-1-{[6-(2,4-difluorophenoxy)pyridin-3-yl]methyl}-3,3-difluoro-4-hydroxy-5-methylpyrrolidin-2-one] | 97 |
| C[C@H]1[C@@H](O)CC(=O)N1Cc1ccc(Oc2ccc(F)cc2F)nc1 [Example 37, (4S,5S)-1{[-6-(2,4-difluorophenoxy)pyridin-3-yl]methyl}-4-hydroxy-5-methylpyrrolidin-2-one] | 97 |
| C[C@H]1[C@@H](O)CC(=O)N1Cc1ccc(Oc2ccc(C(F)F)cc2F)nc1 [Example 38, (4S,5S)-1-({6-[4-(difluoromethyl)-2-fluorophenoxy]pyridin-3-yl}methyl)-4-hydroxy-5-methylpyrrolidin-2-one] | 95 |
| Cc1ccc(Oc2ccc(CN3C(=O)OCC3CF)cn2)c(F)c1 (centres unmarked) [Example 39, 4-(fluoromethyl)-3-{[6-(2-fluoro-4-methylphenoxy)pyridin-3-yl]methyl}-1,3-oxazolidin-2-one] | 92 |
| Cc1ccc(Oc2ccc(CN3C(=O)OCC3C(F)F)cn2)c(F)c1 (centres unmarked) [Example 40, 4-(difluoromethyl)-3-{[6-(2-fluoro-4-methylphenoxy)pyridin-3-yl]methyl}-1,3-oxazolidin-2-one] | 95 |
| C[C@H]1[C@@H](O)CC(=O)N1Cc1ccc(Oc2ccc(C(F)(F)F)cc2F)nc1 [Example 41, (4S,5S)-1-({6-[2-fluoro-4-(trifluoromethyl)phenoxy]pyridin-3-yl}methyl)-4-hydroxy-5-methylpyrrolidin-2-one] | 95 |
| C[C@H]1CCC(=O)N1Cc1cnc(Oc2ccc(C(F)F)cc2F)nc1 [Example 42, (5S)-1-({2-[4-(difluoromethyl)-2-fluorophenoxy]pyrimidin-5-yl}methyl)-5-methylpyrrolidin-2-one] | 97 |
| C[C@H]1[C@@H](O)CC(=O)N1Cc1ccc(Oc2ccc(Cl)cc2F)nc1 [Example 43, (4S,5S)-1-{[6-(4-chloro-2-fluorophenoxy)pyridin-3-yl]methyl}4-hydroxy-5-methylpyrrolidin-2-one] | 98 |
| Cc1ccc(Oc2ncc(CN3C(=O)CC[C@@H]3C)cn2)c(F)c1 [Example 44, (5S)-1-{[2-(2-fluoro-4-methylphenoxy)pyrimidin-5-yl]methyl}-5-methylpyrrolidin-2-one] | 97 |
| C[C@H]1CCC(=O)N1Cc1cnc(Oc2ccc(F)cc2F)nc1 [Example 45, (5S)-1-{[2-(2,4-difluorophenoxy)pyrimidine-5-yl]methyl}-5-methylpyrrolidine-2-one] | 96 |
| C[C@H]1CCC(=O)N1Cc1cnc(Oc2ccc(Cl)cc2F)nc1 [Example 46, (5S)-1-{[2-(4-chloro-2-fluorophenoxy)pyrimidin-5-yl]methyl}-5-methylpyrrolidin-2-one] | 97 |
| C[C@H]1CCC(=O)N1Cc1ccc(Oc2ccc(C(F)F)cc2F)nc1 [Example 47, (5S)-1-({6-[4-(difluoromethy)-2-fluorophenoxy]pyridin-3-yl}methyl)-5-methylpyrrolidin-2-one] | 99 |
| C[C@H]1CCC(=O)N1Cc1ccc(Oc2ccc(F)cc2F)nc1 [Example 48, (5S)-1-{[6-(2,4-difluorophenoxy)pyridin-3-yl]methyl}-5-methylpyrrolidin-2-one] | 98 |
| C[C@H]1COC(=O)N1Cc1cnc(Oc2ccc(Cl)cc2F)nc1 [Example 49, (4S)-3-{[2-(4-chloro-2-fluorophenoxy)pyrimidin-5-yl]methyl}-4-methyl-1,3-oxazolidin-2-one] | 97 |
| C[C@H]1COC(=O)N1Cc1ccc(Oc2ccc(C(F)F)cc2F)nc1 [Example 50, (4S)-3-({6-[4-(difluoromethyl)-2-fluorophenoxy]pyridin-3-yl}methyl)-4-methyl-1,3-oxazolidin-2-one] | 98 |

System: NMDA receptor containing the NR2B subunit
Experiment: [3H]MK-801 binding test in vivo
Parameters: species or system Sprague Dawley rats
Conditions: [3H]MK-801 binding inhibitory rate in rat hippocampus, vehicle control 100%, excess MK-801 maleate 0%
Description: In order to confirm that compounds of the present disclosure exert functional antagonistic action on an NMDA receptor containing the NR2B subunit in vivo, a binding test was performed using tritium-labeled form of MK-801 ((5R,10S)-5-methyl-10,11-dihydro-5H-5,10-epiminodibenzo[a,d][7]annulene) ([3H]MK-801), which is a compound capable of binding to the opening site of the NMDA receptor.
The example compound (3 mg/kg/2 mL, 0.5% MC water) or vehicle (0.5% MC water 2 ml) was orally administered (p.o.) to Sprague Dawley rats (body weight 180-260 g). After a certain time (around after time-to maximum blood concentration), [3H]MK-801 (20 μCi/kg/mL, Muromachi Kikai) was intravenously administered. After 10 min, the rats were euthanized by decapitation, and subjected to craniotomy, and the hippocampus was collected. The collected hippocampus was homogenized in 30 volumes (30 mL per 1 g tissue) ice-cooled 20 mM HEPES (pH7.5, Hampton Research) using a homogenizer (T10 basic Ultra-Turrax) for 10 sec. […] The filter was washed four times with ice-cooled saline (5 mL, Otsuka Pharmaceutical), put into a scintillation vial, and then 10 mL of liquid scintillator A (FUJIFILM Wako Pure Chemical Corporation) was added thereto, and the residual radioactivity was counted using liquid scintillation counter (ALOKA LSC-6100).
Separately, the residual radioactivity in 100 μL of the homogenate before the filtration was counted in the same way. The value of [the residual radioactivity in the filter/the residual radioactivity in the 100 μL of the homogenate] was calculated as a [3H]MK-801 binding rate to the NMDA receptor expressing in each individual hippocampus tissue. […] The difference between the percentage of [^3H]MK-801 binding rate in the group orally administered with the example compound and that in the vehicle control group (100%) was analyzed as [^3H]MK-801 binding inhibitory rate by the example compound.

| Compound | Inhibitory Rate (3 mg/kg, p.o.) [%] |
| --- | --- |
| C[C@H]1[C@@H](O)CC(=O)N1Cc1ccc(Oc2ccc(C(F)F)cc2F)nc1 [Example 38, (4S,5S)-1-({6-[4-(difluoromethyl)-2-fluorophenoxy]pyridin-3-yl}methyl)-4-hydroxy-5-methylpyrrolidin-2-one] | 22 |
| C[C@H]1CCC(=O)N1Cc1cnc(Oc2ccc(F)cc2F)nc1 [Example 45, (5S)-1-{[2-(2,4-difluorophenoxy)pyrimidine-5-yl]methyl}-5-methylpyrrolidine-2-one] | 13 |
| C[C@H]1COC(=O)N1Cc1cnc(Oc2ccc(Cl)cc2F)nc1 [Example 49, (4S)-3-{[2-(4-chloro-2-fluorophenoxy)pyrimidin-5-yl]methyl}-4-methyl-1,3-oxazolidin-2-one] | 19 |

System: not given
Experiment: not given
Conditions: intravenous single administration; cited from earlier work

| Compound | depression symptoms associated with major depression and bipolar disorder |
| --- | --- |
| CNC1(c2ccccc2Cl)CCCCC1=O (centres unmarked) [ketamine] | rapidly and continuously improves depression symptoms |

System: not given
Experiment: not given
Conditions: continuous intravenous administration; cited from earlier work

| Compound | treatment-resistant depression symptoms |
| --- | --- |
| C[C@@H]([C@@H](O)c1ccc(O)cc1)N1CCC(O)(c2ccccc2)CC1 [CP-101,606] | significantly improved |

System: not given
Experiment: not given
Conditions: rodents; cited from earlier work

| Compound | number of occurrences and depth of cortical spreading depression |
| --- | --- |
| C[C@@H]([C@@H](O)c1ccc(O)cc1)N1CCC(O)(c2ccccc2)CC1 [CP-101,606] | suppress the number of occurrences of and the depth of cortical spreading depression |
| Ro25-6981 | suppress the number of occurrences of and the depth of cortical spreading depression |

System: not given
Experiment: not given
Conditions: in vivo; cited from earlier work

| Compound | pain threshold value |
| --- | --- |
| CC(C(O)c1ccc(O)cc1)N1CCC(Cc2ccccc2)CC1 (centres unmarked) [Ifenprodil] | increased |

System: not given
Experiment: not given
Conditions: in vivo; cited from earlier work
Remark: another data set of the same source

| Compound | peripheral symptoms of dementia |
| --- | --- |
| CC12CC3CC(C)(C1)CC(N)(C3)C2 [memantine] | partially ameliorated |
